The results in this text go back to patent publication US20210322395A1, “METHOD TO PREVENT AND TREAT HEARING LOSS BY CALCIUM CHANNEL BLOCKERS, ANGIOTENSIN CONVERTING ENZYME INHIBITORS, AND ANGIOTENSIN RECEPTOR BLOCKERS” (priority 2018, published 2021).

Experiment [1] relates to hearing loss. As to the kind of experiment: Treatment of hearing loss in a patient, one ear treated, other ear untreated. Format: in vivo, human. The source says:
A patient is diagnosed with hearing loss of the same magnitude in both ears. A composition comprising the calcium channel blocker nifedipine is directly applied to the external ear space of one ear while the other ear is left untreated. […] A patient is diagnosed with hearing loss of the same magnitude in both ears. A composition comprising the ACE inhibitor enalapril is directly applied to the external ear space of one ear while the other ear is left untreated. […] A patient is diagnosed with hearing loss of the same magnitude in both ears. A composition comprising the angiotensin receptor blocker losartan is directly applied to the external ear space of one ear while the other ear is left untreated. […] A patient is diagnosed with hearing loss of the same magnitude in both ears. A composition comprising the calcium channel blocker nifedipine is administered by injection into the middle ear space of one ear while the other ear is left untreated. […] A patient is diagnosed with hearing loss of the same magnitude in both ears. A composition comprising the ACE inhibitor enalapril is administered by injection into the middle ear space of one ear while the other ear is left untreated. […] A patient is diagnosed with hearing loss of the same magnitude in both ears. A composition comprising the angiotensin receptor blocker losartan is administered by injection into the middle ear space of one ear while the other ear is left untreated. […] A patient is diagnosed with hearing loss of the same magnitude in both ears. A composition comprising the calcium channel blocker nifedipine is administered by injection into the inner ear space of one ear while the other ear is left untreated. […] A patient is diagnosed with hearing loss of the same magnitude in both ears. A composition comprising the ACE inhibitor enalapril is administered by injection into the inner ear space of one ear while the other ear is left untreated. […] A patient is diagnosed with hearing loss of the same magnitude in both ears. A composition comprising the angiotensin receptor blocker losartan is administered by injection into the inner ear space of one ear while the other ear is left untreated.

The test system of experiment [2] is hearing loss. As to the kind of experiment: Prevention of recurrence of hearing loss in a successfully treated patient, one ear treated, other ear untreated. Format: in vivo, human. The settings on record: patient after successful treatment, untreated side again exhibits symptoms. The source says: A composition comprising the calcium channel blocker nifedipine is directly applied to the external ear space of one ear while the other ear is left untreated. […] A composition comprising the ACE inhibitor enalapril is directly applied to the external ear space of one ear while the other ear is left untreated. […] A composition comprising the angiotensin receptor blocker losartan is directly applied to the external ear space of one ear while the other ear is left untreated. […] A composition comprising the calcium channel blocker nifedipine is administered by injection into the middle ear space of one ear while the other ear is left untreated. […] A composition comprising the ACE inhibitor enalapril is administered by injection into the middle ear space of one ear while the other ear is left untreated. […] A composition comprising the angiotensin receptor blocker losartan is administered by injection into the middle ear space of one ear while the other ear is left untreated. […] A composition comprising the calcium channel blocker nifedipine is administered by injection into the inner ear space of one ear while the other ear is left untreated. […] A composition comprising the ACE inhibitor enalapril is administered by injection into the inner ear space of one ear while the other ear is left untreated. […] A composition comprising the angiotensin receptor blocker losartan is administered by injection into the inner ear space of one ear while the other ear is left untreated.

The mark [3] stands for this setting: composition directly applied to the external ear space of one ear.
The mark [4] stands for this setting: composition injected into the inner ear space of one ear.
Where [5] appears, read: composition injected into the middle ear space of one ear.

With `CCOC(=O)[C@H](CCc1ccccc1)N[C@@H](C)C(=O)N1CCC[C@H]1C(=O)O` [enalapril], the “hearing loss of treated ear compared to untreated ear” value in the experiment on hearing loss [1] (setting [3]), in the experiment on hearing loss [1] (setting [4]) and with hearing loss [1] (setting [5]) was “reduced hearing loss” in each case. The “level of hearing of treated ear after a period of time (recurrence of hearing loss)” value with hearing loss [2] (setting [3]), in the experiment with hearing loss [2] (setting [4]) and in the experiment with hearing loss [2] (setting [5]) was “maintained the level of hearing” in each case.
As to `CCCCc1nc(Cl)c(CO)n1Cc1ccc(-c2ccccc2-c2nn[nH]n2)cc1` [losartan], the “hearing loss of treated ear compared to untreated ear” value with hearing loss [1] (setting [3]), in the experiment with hearing loss [1] (setting [4]) and in the experiment on hearing loss [1] (setting [5]) was “reduced hearing loss” throughout. For the same compound, the “level of hearing of treated ear after a period of time (recurrence of hearing loss)” value in the experiment on hearing loss [2] (setting [3]), with hearing loss [2] (setting [4]) and with hearing loss [2] (setting [5]) was “maintained the level of hearing” throughout.
